The values that follow come from patent US10702504B2, “Degradation of tripartite motif-containing protein 24 (TRIM24) by conjugation of TRIM24 inhibitors with E3 ligase ligand and methods of use” (Dana-Farber Cancer Institute, Inc., priority 2016, dated 2020).

As usually defined, the IC50 is the concentration that gives 50% inhibition.

Test [1] deals with PHD-bromodomain of TRIM24 (Homo sapiens (Human), UniProt O15164). As to the kind of experiment: TRIM24 binding alpha assay. The settings on record: Alpha Assay binding to TRIM24; compounds 50 μM to 0.002 μM. The protocol:
The alpha TRIM24 binding assay is used to assess the binding of the compounds of the application. Compounds are added at various concentrations as well as a vehicle control. Compounds that bind to TRIM24 compete away the interaction between the PHD-bromodomain of TRIM24 bound to the donor bead, and the H3K23ac histone peptide bound to the acceptor bead, which causes a decrease in signal. IC50 values are calculated.
The alpha assay was used to assess the binding of the compounds of the application to TRIM24 at various concentrations. All compounds were added at concentrations from 50 μM to 0.002 μM. Compounds that bind to TRIM24 compete with the PHD-bromodomain of TRIM24 in interacting with the donor bead, and the H3K23ac histone peptide bound to the acceptor bead, which causes a decrease in signal. IC50 values were calculated by using Graphpad PRISM's log(inhibitor) vs. response—variable slope (four parameters).

The target in test [2] is TRIM24 (Homo sapiens (Human), UniProt O15164). Kind of test: Destabilization of TRIM24 over time in MCF7 cells (immunoblot). In kind it is cell-based. The protocol: Wild-type or cereblon null 293T cells, or MCF7 cells, were treated with compounds of the application. The cells were treated for 4 hours or 18 hours with representative compounds at a final concentration of 10 μM, 5 μM, or 0.5 μM, or with a vehicle control. Cells were harvested and lysed using RIPA buffer with Halt protease inhibitors and 0.1% benzonase on ice for 15 minutes. The amount of total protein was quantified using the BCA assay. Primary antibodies used were TRIM24 (Cell Signaling Technology) as well as actin (Santa Cruz). Blots were imaged using secondary antibodies (LI-COR) on the OdysseyCLxImager. Band intensities were quantified using the LI-COR software. TRIM24 signal was normalized to the actin loading control. The signal intensity of TRIM24 from cells treated with DMSO was set to 1, and all other treatment conditions were normalized to the DMSO condition per immunoblot to determine the level of TRIM24, which was expressed as a ratio to the TRIM24 level in the DMSO treated cells.
In addition. MCF7 cells were treated for 24, 48, and 72 hours with representative compounds of the application at 5 μM.

Structures are written as SMILES.

PHD-bromodomain of TRIM24, sequence (O15164 824-1006): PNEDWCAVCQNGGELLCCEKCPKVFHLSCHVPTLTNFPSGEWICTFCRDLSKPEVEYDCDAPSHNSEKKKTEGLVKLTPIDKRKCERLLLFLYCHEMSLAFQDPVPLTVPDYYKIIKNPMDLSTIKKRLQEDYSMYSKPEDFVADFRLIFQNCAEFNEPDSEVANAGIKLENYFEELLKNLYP
TRIM24, sequence (O15164 whole entry): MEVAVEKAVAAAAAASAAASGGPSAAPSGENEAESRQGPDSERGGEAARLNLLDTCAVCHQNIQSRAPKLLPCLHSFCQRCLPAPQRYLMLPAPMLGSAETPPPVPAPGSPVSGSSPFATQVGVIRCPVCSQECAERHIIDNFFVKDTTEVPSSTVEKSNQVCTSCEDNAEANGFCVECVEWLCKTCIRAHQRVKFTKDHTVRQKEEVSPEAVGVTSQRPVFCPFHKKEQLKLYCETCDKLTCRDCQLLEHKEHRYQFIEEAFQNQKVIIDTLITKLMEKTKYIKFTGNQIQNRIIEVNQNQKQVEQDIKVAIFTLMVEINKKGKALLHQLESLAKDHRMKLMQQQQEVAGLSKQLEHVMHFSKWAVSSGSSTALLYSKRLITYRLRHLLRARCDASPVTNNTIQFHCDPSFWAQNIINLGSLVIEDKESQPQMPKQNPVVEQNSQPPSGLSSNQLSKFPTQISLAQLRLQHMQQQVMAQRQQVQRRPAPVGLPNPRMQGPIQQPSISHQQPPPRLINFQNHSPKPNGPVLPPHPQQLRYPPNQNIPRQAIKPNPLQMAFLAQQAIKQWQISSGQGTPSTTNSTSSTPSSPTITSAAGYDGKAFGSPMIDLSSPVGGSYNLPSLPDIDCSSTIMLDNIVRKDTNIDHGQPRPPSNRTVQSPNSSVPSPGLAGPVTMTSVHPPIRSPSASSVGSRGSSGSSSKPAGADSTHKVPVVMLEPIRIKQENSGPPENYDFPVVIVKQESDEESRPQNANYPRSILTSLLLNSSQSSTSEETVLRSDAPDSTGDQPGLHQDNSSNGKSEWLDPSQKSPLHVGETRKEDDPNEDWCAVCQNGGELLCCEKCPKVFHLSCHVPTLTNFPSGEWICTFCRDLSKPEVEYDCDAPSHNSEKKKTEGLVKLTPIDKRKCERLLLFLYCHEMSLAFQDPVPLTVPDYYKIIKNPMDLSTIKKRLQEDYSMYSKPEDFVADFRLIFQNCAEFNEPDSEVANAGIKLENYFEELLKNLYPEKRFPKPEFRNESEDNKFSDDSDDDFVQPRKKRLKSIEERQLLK

As to `CCCOc1cc(OCCCCN(C)C)cc(Oc2cc3c(cc2NS(=O)(=O)c2cccc(C(=O)NCCCOCCOCCOCCCNC(=O)COc4cccc5c4C(=O)N(C4CCC(=O)NC4=O)C5=O)c2)n(C)c(=O)n3C)c1` (stereo not shown) [I-A12, 3-(N-(6-(3-(4-(dimethylamino)butoxy)-5-propoxyphenoxy)-1,3-dimethyl-2-oxo-2,3-dihydro-1H-benzo[d]imidazol-5-yl)sulfamoyl)-N-(1-((2-(2,6-dioxopiperidin-3-yl)-1,3-dioxoisoindolin-4-yl)oxy)-2-oxo-7,10,13-trioxa-3-azahexadecan-16-yl)benzamide], in test [1], the IC50 was less than 50 nM.
Turning to `CCCOc1cccc(Oc2cc3c(cc2NS(=O)(=O)c2cccc(C(=O)NCCOCCOCCOc4cc(-c5scnc5C)ccc4CNC(=O)[C@@H]4C[C@@H](O)CN4C(=O)[C@H](C(C)C)N4Cc5ccccc5C4=O)c2)n(C)c(=O)n3C)c1` [I-B1, (2S,4R)—N-(2-(2-(2-(2-(3-(N-(1,3-dimethyl-2-oxo-6-(3-propoxyphenoxy)-2,3-dihydro-1H-benzo[d]imidazol-5-yl)sulfamoyl)benzamido)ethoxy)ethoxy)ethoxy)-4-(4-methylthiazol-5-yl)benzyl)-4-hydroxy-1-((S)-3-methyl-2-(1-oxoisoindolin-2-yl)butanoyl)pyrrolidine-2-carboxamide], the IC50 in test [1] was 100 to 500 nM.
For `CCCOc1cccc(Oc2cc3c(cc2NS(=O)(=O)c2cccc(C(=O)NCCOCCOCC(=O)N[C@H](C(=O)N4C[C@H](O)C[C@H]4C(=O)NCc4ccc(-c5scnc5C)cc4)C(C)(C)C)c2)n(C)c(=O)n3C)c1` [I-B2, (4R)-1-((S)-12-(tert-butyl)-1-(3-(N-(1,3-dimethyl-2-oxo-6-(3-propoxyphenoxy)-2,3-dihydro-1H-benzo[d]imidazol-5-yl)sulfamoyl)phenyl)-1,10-dioxo-5,8-dioxa-2,11-diazatridecan-13-oyl)-4-hydroxy-N-(4-(4-methylthiazol-5-yl)benzyl)pyrrolidine-2-carboxamide], in test [1], the IC50 was less than 50 nM.
For the compound `CCCOc1cccc(Oc2cc3c(cc2NS(=O)(=O)c2cccc(C(=O)NCCOCCOCCOCC(=O)N[C@H](C(=O)N4C[C@H](O)C[C@H]4C(=O)NCc4ccc(-c5scnc5C)cc4)C(C)(C)C)c2)n(C)c(=O)n3C)c1` [I-B3, (2S,4R)-1-((S)-15-(tert-butyl)-1-(3-(N-(1,3-dimethyl-2-oxo-6-(3-propoxyphenoxy)-2,3-dihydro-1H-benzo[d]imidazol-5-yl)sulfamoyl)phenyl)-1,13-dioxo-5,8,11-trioxa-2,14-diazahexadecan-16-oyl)-4-hydroxy-N-(4-(4-methylthiazol-5-yl)benzyl)pyrrolidine-2-carboxamide], the concentration for half-maximal inhibition (IC50) in test [1] lay in the range of 50 to 100 nM. For the same compound, the “level of TRIM24 compared to vehicle” value in test [2] (5 μM, 24, 48 and 72 hours) was “significantly reduced”. Further, the “decrease in the level of TRIM24 over time” value in test [2] (5 μM, 24 h to 72 h) was “continued over a 24 h to 72 h period”.
Compound `CCCOc1cc(OCCCCN(C)C)cc(Oc2cc3c(cc2NS(=O)(=O)c2cccc(C(=O)NCCOCCOCCOCC(=O)N[C@H](C(=O)N4C[C@H](O)C[C@H]4C(=O)NCc4ccc(-c5scnc5C)cc4)C(C)(C)C)c2)n(C)c(=O)n3C)c1` [I-B4, (2S,4R)-1-((S)-15-(tert-butyl)-1-(3-(N-(6-(3-(4-(dimethylamino)butoxy)-5-propoxyphenoxy)-1,3-dimethyl-2-oxo-2,3-dihydro-H-benzo[d]imidazol-5-yl)sulfamoyl)phenyl)-1,13-dioxo-5,8,11-trioxa-2,14-diazahexadecan-16-oyl)-4-hydroxy-N-(4-(4-methylthiazol-5-yl)benzyl)pyrrolidine-2-carboxamide] returned an IC50 in test [1] of less than 50 nM.
